Consider 8 compounds from ChEMBL document CHEMBL1201862, “PubChem BioAssay data set” (2004).

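96-well plates; 48 h exposure; 5 concentrations. Endpoints by linear interpolation between flanking doses. Not reached: highest tested concentration assigned. GI50 marks 50% less growth.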 Activity calls are given as the source filed them. No stated cut-off is given here; in the data, active = GI50 up to about 1.1 µM and inactive = higher.

Among the test systems are NCI-H23; SF-295; SNB-19; MCF7; NCI-H226; MOLT-4; ACHN; OVCAR-3; SNB-75; Hs-578T; RPMI-8226; CCRF-CEM; HOP-92; HCC 2998; UO-31; LOX IMVI; HL-60; EKVX; K562; RXF 393.
What all share (assay): NCI anticancer screen, dose series, 48 h

Regarding `COc1cccc(-c2cc(O)c3cc(N4CCOCC4)ccc3n2)c1`, the GI50 in the test with NCI-H23 was 0.0289 µM (active); with SF-295, 0.041 µM (active); with SNB-19, 0.0543 µM (active); with MCF7, 0.0484 µM (active); with NCI-H226, 0.0383 µM (active); in the test with MOLT-4, 0.0391 µM (active). Besides, the GI50 in the test on ACHN is 0.0524 µM (active); with OVCAR-3, 0.0201 µM (active); in the test with SNB-75, 0.0377 µM (active); in the test with Hs-578T, 0.0184 µM (active); with RPMI-8226 it was 0.361 µM (active); with CCRF-CEM, 0.0288 µM (active). Moreover, the GI50 was 0.0376 µM (active) in the test on HOP-92; 0.0656 µM (active) with HCC 2998; 0.0372 µM (active) with UO-31; 0.049 µM (active) in the test with LOX IMVI; 0.0194 µM (active) with HL-60; 0.363 µM (active) in the test with EKVX. The GI50 in the test with K562 is 0.0212 µM (active).

For the compound `CCOC(=O)c1c(NC(=O)c2cccs2)sc2c1CCC2`, the GI50 with NCI-H23, in the test with SF-295, in the test on SNB-19, with MCF7, with NCI-H226 and with MOLT-4 was > 100 µM (inactive) in each case. In addition, the GI50 is > 100 µM (inactive) in the test with ACHN; > 100 µM (inactive) in the test on OVCAR-3; 1.22 µM (inactive) in the test on SNB-75; > 100 µM (inactive) in the test with Hs-578T; > 100 µM (inactive) in the test with RPMI-8226; > 100 µM (inactive) in the test with CCRF-CEM. Also, the GI50 in the test on RXF 393, in the test on UO-31, in the test on HL-60, in the test on EKVX and with K562 was > 100 µM (inactive) each time.

Consider `C[C@@H]1CC[C@H]2C(C)(C)[C@H]3C[C@@]12CC[C@@]3(C)O` [CEDROL], for which the GI50 in the test with NCI-H23 was > 100 µM (inactive); in the test on SF-295, > 100 µM (inactive); in the test with SNB-19 it was > 100 µM (inactive); in the test with MCF7, > 100 µM (inactive); in the test with NCI-H226, 77.1 µM (inactive); with MOLT-4, 35.5 µM (inactive). Besides, the GI50 in the test with ACHN is > 100 µM (inactive); in the test on OVCAR-3, > 100 µM (inactive); with SNB-75, > 100 µM (inactive); in the test with Hs-578T, > 100 µM (inactive); in the test on RPMI-8226 it was 24.6 µM (inactive); in the test on CCRF-CEM, > 100 µM (inactive). For the same compound, the GI50 with HOP-92 is 72.6 µM (inactive); in the test on HCC 2998 it was 52.2 µM (inactive); in the test on UO-31, > 100 µM (inactive); with LOX IMVI, > 100 µM (inactive); in the test with HL-60 it was 18.7 µM (inactive); in the test with EKVX, > 100 µM (inactive). Further, the GI50 with K562 is 92 µM (inactive).

Turning to `Cc1cc(C)c(S(=O)(=O)N[C@@H](/C=C(\Br)CO)C(C)C)c(C)c1`, the GI50 in the test on NCI-H23 was 33 µM (inactive); in the test on SF-295 it was 30.2 µM (inactive); with SNB-19, 56 µM (inactive); in the test with MCF7 it was 19.6 µM (inactive); in the test with MOLT-4 it was 24.2 µM (inactive); in the test on ACHN, 30.4 µM (inactive). For the same compound, the GI50 in the test with OVCAR-3 was 21.2 µM (inactive); in the test on SNB-75, 45 µM (inactive); in the test with Hs-578T it was 22.5 µM (inactive); with RPMI-8226, 21.6 µM (inactive); with CCRF-CEM, 27.3 µM (inactive); in the test on HOP-92, 23.1 µM (inactive). Further, the GI50 in the test with HCC 2998 was 24.5 µM (inactive); with RXF 393, 23.4 µM (inactive); in the test on UO-31, 33 µM (inactive); in the test with LOX IMVI it was 18.7 µM (inactive); in the test on HL-60 it was 17.9 µM (inactive); with EKVX, 35.6 µM (inactive). In the test on K562, the GI50 was 18.5 µM (inactive).

Turning to `COC(=O)/C=C/c1cc(OC)c2oc(-c3ccc(OC)c(OC)c3)c(C(=O)OC)c2c1`, the GI50 in the test with NCI-H23, in the test on SF-295, with SNB-19, in the test on MCF7, with MOLT-4 and with ACHN was > 100 µM (inactive) throughout. The GI50 in the test on OVCAR-3, in the test with Hs-578T, in the test on RPMI-8226, in the test with CCRF-CEM, in the test on HOP-92 and in the test with HCC 2998 was > 100 µM (inactive) throughout. For the same compound, the GI50 in the test with UO-31, with LOX IMVI, with HL-60, in the test on EKVX and in the test with K562 was > 100 µM (inactive) in each case.

Regarding `CC1(C)OC([C@H](O)CO)C([C@H]2NCCS2)O1` (stereo partly drawn), the GI50 with NCI-H23, in the test on SF-295, in the test with SNB-19, with NCI-H226, in the test with MOLT-4 and in the test with ACHN was > 100 µM (inactive) throughout. Further, the GI50 with OVCAR-3, in the test with SNB-75, in the test with Hs-578T, in the test on RPMI-8226, in the test on CCRF-CEM and with HOP-92 was > 100 µM (inactive) in each case. The GI50 with HCC 2998, in the test on RXF 393, in the test on UO-31, in the test on LOX IMVI, with HL-60 and with EKVX was > 100 µM (inactive) throughout. Besides, the GI50 in the test with K562 is > 100 µM (inactive).

Take `O=C1Cc2c([nH]c3ccc(Br)cc23)-c2ccccc2N1` [KENPAULLONE]: the GI50 in the test on NCI-H23 is > 100 µM (inactive); with SF-295, > 100 µM (inactive); in the test with SNB-19, > 78.5 µM (inactive); in the test with NCI-H226 it was > 100 µM (inactive); with MOLT-4 it was 13.5 µM (inactive); in the test with ACHN, > 100 µM (inactive). Besides, the GI50 in the test with OVCAR-3 is 3.95 µM (inactive); with SNB-75, > 50.8 µM (inactive); in the test with Hs-578T it was > 100 µM (inactive); with RPMI-8226, > 20.5 µM (inactive); in the test on CCRF-CEM, 5.55 µM (inactive); in the test with HOP-92, > 100 µM (inactive). Moreover, the GI50 with HCC 2998 is > 100 µM (inactive); in the test on RXF 393 it was 5.11 µM (inactive); in the test with UO-31 it was > 100 µM (inactive); in the test with LOX IMVI it was 5.35 µM (inactive); with HL-60, 5.21 µM (inactive); in the test on EKVX, > 100 µM (inactive). The GI50 in the test on K562 was > 54.8 µM (inactive).

On to `CCCCCC/C=C\CCCCCCCCCc1cccc(O)c1C(=O)O` [GINKGOLIC ACID 17:1], for which the GI50 in the test with NCI-H23 is > 100 µM (inactive); in the test with SF-295, 59.3 µM (inactive); with SNB-19, 61.1 µM (inactive); in the test on MCF7, > 100 µM (inactive); in the test with NCI-H226, 60.7 µM (inactive); in the test with MOLT-4, 83.8 µM (inactive). The GI50 is > 100 µM (inactive) with ACHN; > 100 µM (inactive) in the test with OVCAR-3; > 100 µM (inactive) with SNB-75; > 100 µM (inactive) in the test on Hs-578T; 84.3 µM (inactive) with RPMI-8226; 99.1 µM (inactive) in the test with CCRF-CEM. Moreover, the GI50 with HOP-92, in the test with HCC 2998, in the test with RXF 393, with UO-31, in the test on HL-60 and with EKVX was > 100 µM (inactive) in each case. For the same compound, the GI50 in the test on K562 is 65.9 µM (inactive).
